# Counter-ions that a name gives are not always drawn. Like-named read-outs stand apart in the source and are kept apart here.
# Assays:
# OAT1 = target: T1, OAT1 (Homo sapiens, UniProt Q4U2R8); assay: Inhibition of uptake (SLC) transporters; type: in vitro ADME
# T1 construct: expressed in transfected cells; host or cells: HEK293 cells
# [1] = Cytotoxicity by lactate dehydrogenase (LDH) release; type: cell-based; settings: dog, MDCKII control cells, read-out: percent cytotoxicity (LDH release)
# [2] = as above; type: cell-based; settings: human, Caco-2 cells; read-out: percent cytotoxicity (LDH release)
# in vivo = settings: rat, po, 100 mg/kg; for concentration at 1 h: 1 h post-dose; for concentration at 2 h: 2 h post-dose; for concentration at 0.5 h: 0.5 h post-dose
# Protocol: In both assays, a deuterated (Compound 1-d4) internal standard was used.
# The objective of this non-GLP study was to determine the pharmacokinetics of Compound 1 after a single oral (gavage) dose in rats, and to determine if Compound 1 undergoes epimerization in the rat. Compound 1 was administered to CD® IGS [Crl:CD(SD)] (Sprague Dawley) rats (5/sex/group) as a single oral gavage dose of 100 mg/kg in a vehicle of 0.5% aqueous HPMC. Rats were dosed at a dose volume of 10 mL/kg body weight.
# [3] = Rat single dose metabolism/excretion study (urine and feces)
# [4] = Rat 28-day GLP repeat dose PO study (toxicokinetics); type: in vivo
# Protocol: The vehicle was 0.5% HPMC. There were 15 rats/sex in the control and high dose groups (5/sex for a 14-day recovery period) while the low and mid doses consisted of 10 rats/sex. Satellite groups of rats/sex/group for toxicokinetics were included.
# Rats in Group 1 (Vehicle Control) were bled once at approximately 1 hour post-dose on those days.
# [5] = female, Sprague Dawley, Compound 1 Concentration in rat plasma, 100 mg/kg single PO, individual animals
# [6] = female, Sprague-Dawley (CD IGS, Crl:CD(SD))
# [7] = male, Sprague Dawley, Compound 1 Concentration in rat plasma, 100 mg/kg single PO, individual animals
# [8] = male, Sprague Dawley, Compound 1 Concentration in rat plasma, 100 mg/kg single PO, Average
# [9] = male, Sprague-Dawley (CD IGS, Crl:CD(SD))
# [10] = female, rat, in vivo, po, 50 mg/kg, Day 1, F, 50 mg/kg PO
# [11] = female, rat, in vivo, po, 500 mg/kg, Day 14, F, 500 mg/kg PO
# [12] = female, rat, in vivo, po, 500 mg/kg, Day 28, F, 500 mg/kg PO
# [13] = female, rat, in vivo, po, 1000 mg/kg, Day 1, F, 1000 mg/kg PO
# [14] = female, rat, in vivo, po, 1000 mg/kg, Day 14, F, 1000 mg/kg PO
# [15] = female, rat, in vivo, po, 1000 mg/kg, Day 28, F, 1000 mg/kg PO
# [16] = female, rat, in vivo, po, 2000 mg/kg, Day 1, F, 2000 mg/kg PO
# T1 sequence (Q4U2R8 whole entry): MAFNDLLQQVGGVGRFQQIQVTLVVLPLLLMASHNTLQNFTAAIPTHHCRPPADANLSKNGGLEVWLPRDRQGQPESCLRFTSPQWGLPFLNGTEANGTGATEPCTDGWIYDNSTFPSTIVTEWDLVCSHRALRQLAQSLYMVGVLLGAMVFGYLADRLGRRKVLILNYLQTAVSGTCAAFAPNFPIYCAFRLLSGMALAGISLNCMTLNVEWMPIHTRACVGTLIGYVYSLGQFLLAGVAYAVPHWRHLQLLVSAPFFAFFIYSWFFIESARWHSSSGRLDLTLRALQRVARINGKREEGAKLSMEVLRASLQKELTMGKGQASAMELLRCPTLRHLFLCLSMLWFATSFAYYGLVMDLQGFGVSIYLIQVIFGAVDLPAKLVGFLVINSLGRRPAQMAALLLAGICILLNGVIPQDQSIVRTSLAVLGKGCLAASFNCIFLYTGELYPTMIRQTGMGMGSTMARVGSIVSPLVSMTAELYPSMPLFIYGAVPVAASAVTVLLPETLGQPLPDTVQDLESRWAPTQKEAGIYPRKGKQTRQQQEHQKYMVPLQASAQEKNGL
structure (smiles),measurement,setting,value
"CC1(C)SC(Nc2ccccc2O)=N[C@@H]1C(=O)O [Compound 1, (R)-2-(2-hydroxyphenylamino)-5,5-dimethyl-4,5-dihydrothiazole-4-carboxylic acid mono-hydrochloride]",IC50,"OAT1; HEK293 cells, probe [3H]-p-aminohippurate (1 μM), 0.3-600 μM tested",> 600 µM
same,transporter inhibition,OAT1; OAT1,does not inhibit
same,cytotoxicity at 100 µM,[1]; 100 μM,31.3%
same,cytotoxicity at 600 µM,[1]; 600 μM,33.6%
same,cytotoxicity,[2],< 25%
same,concentration at 1 h,"in vivo; female, Sprague Dawley (CD IGS, Crl:CD(SD)), Compound 1 Concentration in rat plasma, Female, 100 mg/kg single PO, Average",60.1 µg/mL
same,concentration at 2 h,"in vivo; female, Sprague Dawley (CD IGS, Crl:CD(SD)), Compound 1 Concentration in rat plasma, Female, 100 mg/kg single PO, individual animals",58.2 µg/mL
same,concentration at 4 h,"in vivo; female, Sprague Dawley (CD IGS, Crl:CD(SD)), Compound 1 Concentration in rat plasma, Female, 100 mg/kg single PO, 4 h post-dose, Average",22.6 µg/mL
same,concentration at 0.5 h,in vivo; [5],34.3 µg/mL
same,concentration at 1 h,in vivo; [5],53.9 µg/mL
same,Cmax,in vivo; [6],60 µg/mL
same,half-life,in vivo; [6],4 h
same,concentration at 0.5 h,in vivo; [7],13.8 µg/mL
same,concentration at 1 h,in vivo; [8],14.9 µg/mL
same,concentration at 2 h,in vivo; [8],14.3 µg/mL
same,concentration at 2 h,in vivo; [7],16.3 µg/mL
same,concentration at 8 h,"in vivo; male, Sprague Dawley, Compound 1 Concentration in rat plasma, 100 mg/kg single PO, 8 h post-dose, individual animals",1.61 µg/mL
same,Cmax,in vivo; [9],15 µg/mL
same,Tmax,in vivo; [9],1 h
same,half-life,in vivo; [9],7 h
same,administered compound recovered unchanged,[3],5-15%
same,Cmax,"[4]; 28-day pivotal rat study, at some doses",over 100 μg/mL
same,Tmax,"[4]; 28-day study, rat",≤ 1 h
same,overall mean t1/2,"[4]; all sexes, days, dose levels",4.24 h
same,Tmax,"[4]; both sexes, rat, in vivo, po",0.5 to 2 h
same,half-life,"[4]; both sexes, rat, in vivo, po",3 to 8 h
same,Tmax,"[4]; both sexes, rat, in vivo, po, Days 1, 14 and 28, 500 to 2000 mg/kg PO, read-out: median tmax",1 h
same,Tmax,"[4]; both sexes, rat, in vivo, po, Days 14 and 28, all dose levels and sexes, read-out: overall median tmax",1 h
same,overall mean V/F,"[4]; both, rat, in vivo",12.5 L/kg
same,overall mean CL/F,"[4]; both, rat, in vivo, po",35.2 mL/min/kg
same,AUC,[4]; [10],298 µg·h/mL
same,AUC(0-inf),[4]; [10],299 µg·h/mL
same,CL/F,"[4]; female, rat, in vivo, po, 50 mg/kg, Day 1, F, 50 mg/kg PO, read-out: CL/F (CLz/F) (converted)",27.8 mL/min/kg
same,Cmax,"[4]; female, rat, in vivo, po, 50 mg/kg, Day 1, F, 50 mg/kg PO, read-out: Cmax",74.8 µg/mL
same,Vd/F,"[4]; female, rat, in vivo, po, 50 mg/kg, Day 1, F, 50 mg/kg PO, read-out: V/F (Vz/F)",8.1 L/kg
same,half-life,"[4]; female, rat, in vivo, po, 50 mg/kg, Day 1, F, 50 mg/kg PO, read-out: t1/2 (converted)",3.36 h
same,AUC,[4]; [11],223 µg·h/mL
same,AUC(0-inf),[4]; [11],225 µg·h/mL
same,CL/F,"[4]; female, rat, in vivo, po, 500 mg/kg, Day 14, F, 500 mg/kg PO, read-out: CL/F (CLss/F) (converted)",37.5 mL/min/kg
same,Cmax,"[4]; female, rat, in vivo, po, 500 mg/kg, Day 14, F, 500 mg/kg PO, read-out: Cmax",75 µg/mL
same,Vd/F,"[4]; female, rat, in vivo, po, 500 mg/kg, Day 14, F, 500 mg/kg PO, read-out: V/F (Vss/F)",13.6 L/kg
same,half-life,"[4]; female, rat, in vivo, po, 500 mg/kg, Day 14, F, 500 mg/kg PO, read-out: t1/2 (converted)",4.2 h
same,Tmax,"[4]; female, rat, in vivo, po, 500 mg/kg, Day 14, F, 500 mg/kg PO, read-out: tmax",1 h
same,AUC,[4]; [12],297 µg·h/mL
same,AUC(0-inf),[4]; [12],303 µg·h/mL
same,CL/F,"[4]; female, rat, in vivo, po, 500 mg/kg, Day 28, F, 500 mg/kg PO, read-out: CL/F (CLss/F) (converted)",28 mL/min/kg
same,Cmax,"[4]; female, rat, in vivo, po, 500 mg/kg, Day 28, F, 500 mg/kg PO, read-out: Cmax",86.4 µg/mL
same,Vd/F,"[4]; female, rat, in vivo, po, 500 mg/kg, Day 28, F, 500 mg/kg PO, read-out: V/F (Vss/F)",11.2 L/kg
same,half-life,"[4]; female, rat, in vivo, po, 500 mg/kg, Day 28, F, 500 mg/kg PO, read-out: t1/2 (converted)",4.62 h
same,Tmax,"[4]; female, rat, in vivo, po, 500 mg/kg, Day 28, F, 500 mg/kg PO, read-out: tmax",0.5 h
same,AUC,[4]; [13],788 µg·h/mL
same,AUC(0-inf),[4]; [13],794 µg·h/mL
same,CL/F,"[4]; female, rat, in vivo, po, 1000 mg/kg, Day 1, F, 1000 mg/kg PO, read-out: CL/F (CLz/F) (converted)",21 mL/min/kg
same,Cmax,"[4]; female, rat, in vivo, po, 1000 mg/kg, Day 1, F, 1000 mg/kg PO, read-out: Cmax",108 µg/mL
same,Vd/F,"[4]; female, rat, in vivo, po, 1000 mg/kg, Day 1, F, 1000 mg/kg PO, read-out: V/F (Vz/F)",6.15 L/kg
same,half-life,"[4]; female, rat, in vivo, po, 1000 mg/kg, Day 1, F, 1000 mg/kg PO, read-out: t1/2 (converted)",3.39 h
same,AUC,[4]; [14],430 µg·h/mL
same,AUC(0-inf),[4]; [14],437 µg·h/mL
same,CL/F,"[4]; female, rat, in vivo, po, 1000 mg/kg, Day 14, F, 1000 mg/kg PO, read-out: CL/F (CLss/F) (converted)",38.7 mL/min/kg
same,Cmax,"[4]; female, rat, in vivo, po, 1000 mg/kg, Day 14, F, 1000 mg/kg PO, read-out: Cmax",96.3 µg/mL
same,Vd/F,"[4]; female, rat, in vivo, po, 1000 mg/kg, Day 14, F, 1000 mg/kg PO, read-out: V/F (Vss/F)",14 L/kg
same,half-life,"[4]; female, rat, in vivo, po, 1000 mg/kg, Day 14, F, 1000 mg/kg PO, read-out: t1/2 (converted)",4.19 h
same,AUC,[4]; [15],736 µg·h/mL
same,AUC(0-inf),[4]; [15],741 µg·h/mL
same,CL/F,"[4]; female, rat, in vivo, po, 1000 mg/kg, Day 28, F, 1000 mg/kg PO, read-out: CL/F (CLss/F) (converted)",22.7 mL/min/kg
same,Cmax,"[4]; female, rat, in vivo, po, 1000 mg/kg, Day 28, F, 1000 mg/kg PO, read-out: Cmax",128 µg/mL
same,Vd/F,"[4]; female, rat, in vivo, po, 1000 mg/kg, Day 28, F, 1000 mg/kg PO, read-out: V/F (Vss/F)",6.26 L/kg
same,half-life,"[4]; female, rat, in vivo, po, 1000 mg/kg, Day 28, F, 1000 mg/kg PO, read-out: t1/2 (converted)",3.2 h
same,Tmax,"[4]; female, rat, in vivo, po, 1000 mg/kg, Day 28, F, 1000 mg/kg PO, read-out: tmax",1 h
same,AUC,[4]; [16],1160 µg·h/mL
same,AUC(0-inf),[4]; [16],1320 µg·h/mL
same,CL/F,"[4]; female, rat, in vivo, po, 2000 mg/kg, Day 1, F, 2000 mg/kg PO, read-out: CL/F (CLz/F) (converted)",25.2 mL/min/kg
same,Cmax,"[4]; female, rat, in vivo, po, 2000 mg/kg, Day 1, F, 2000 mg/kg PO, read-out: Cmax",118 µg/mL
same,Vd/F,"[4]; female, rat, in vivo, po, 2000 mg/kg, Day 1, F, 2000 mg/kg PO, read-out: V/F (Vz/F)",17.6 L/kg

# Source: patent US20200246316A1, “METHODS OF TREATING POST-SURGICAL PAIN WITH A THIAZOLINE ANTI-HYPERALGESIC AGENT” (CERSCI THERAPEUTICS, INC., priority 2019, published 2020)
